Activity calls are given as the source filed them. No cut-off for these calls is given here. *1 amine or outer side, *2 acyl side, *3 side chain or, on linkers, in order; H or OH if unused. Where a SMILES comes first, the peptide text is derived from it. Bridges are numbered along the chain shown (N, C = ends). [ ]: non-standard residue; d: D form. The star is where a group is joined. Met(S-mXyl) = C[S+](CC[C@H](N[*:1])C(=O)[*:2])Cc1cccc(C[*:3])c1; X1 = Cc1ccc(N*)cc1C(=O)NC(C)c1cccc2ccccc12
System: Severe acute respiratory syndrome coronavirus 2
Experiment: Covalent binding affinity to SARS-CoV-2 mutant PLpro Cys111S at 10 uM incubated for 2 hrs by SDS gel analysis

Cc1ccc(NC(=O)CC[C@H](N)C(=O)N[C@H]2CC[S+](C)Cc3cccc(c3)CSC[C@@H](C(=O)O)NC(=O)CNC(=O)[C@H](CCCNC(=N)N)NC(=O)[C@H](CC(C)C)NC2=O)cc1C(=O)NC(C)c1cccc2ccccc12 (stereo partly specified) (H-E(X1)[Met(S-mXyl)]LRGC-OH; thioether 2-6) was tested, and the Activity was “inactive”.

Source: ChEMBL document CHEMBL5042515, “Design and Evaluation of a Novel Peptide-Drug Conjugate Covalently Targeting SARS-CoV-2 Papain-like Protease” (J Med Chem, 2022)
